Key:
[1] = biological target: T1, human NIK (U-2 OS Tet-On-NIK cells) (Homo sapiens, UniProt Q99558); test: Cellular NIK inhibitory activity using ELISA-based IKKalpha phosphorylation assay; type: cell-based; settings: NIK dependent IKKalpha phosphorylation, doxycycline 2 micrograms/ml, 24 hours
T1 construct: expressed in transfected cells; host or cells: U-2 OS Tet-On cells carrying NF-kappa B reporter genes, stably transfected with pTRE2hyg-NIK
Procedure: NF-kappa B reporter genes (Clontech Laboratories, Inc.) was introduced into U-2 OS Tet-On cell line (Clontech Laboratories, Inc.) by the co-transfection with puromycin resistance gene (Clontech Laboratories, Inc.). […] NIK protein expression in this established cells (U-2 OS Tet-On-NIK) was controlled in a doxycycline dependent manner. The cells were cultured in DMEM containing 10% FBS, 100 units/ml of penicillin, 0.1 mg of streptomycin sulfate, 100 microgram/ml of hygromycin and 1 microgram/ml of puromycin (Growth medium).
U-2 OS Tet-On-NIK cells were plated on 96-well plate (Nunc) at 20000 cells per well and were incubated overnight at 37° C. in 5% CO2-95% air. The tested compound was diluted in dimethylsulfoxide (DMSO) and further diluted with a growth medium. Then the compound solution and doxycycline (Clontech Laboratories, Inc.) solution (final working concentration is 2 micrograms/ml) were simultaneously added to the each well. […]
Rabbit anti-IKKalpha [pSpS176/180] phosphospecific antibody (Biosource International, Inc.) or rabbit anti-IKKalpha antibody (Abcam, Inc.) was incubated on wells of an MAXISORP ELISA plate (Nunc) at 4° C. for overnight. […] After stopping HRP-reactions (SureBlue Reserve™ TMB substrate, Kirkegaard & Perry Laboratories, Inc.) by 1N hydrochloric acid, the optical density in each well was determined using a SpectraMax Plus 384 (Molecular Devices Corporation) at 450 nm.
Cellular NIK inhibitory activity of the test compound was represented as IC50 value determined by the following procedure.
Optical density of phospho-IKKalpha in each sample was normalized using the ratio of phospho-IKKalpha to total IKKalpha. The % of Control value was calculated by the following equation. […]
Then the IC50 value for NIK dependent IKKalpha phosphorylation was determined.

[2] = biological target: T2, human ROCK2 catalytic domain (Homo sapiens, UniProt O75116); test: ROCK2 inhibitory activity: peptide phosphorylation, IMAP fluorescence polarization; type: biochemical; settings: for IC50: His-tagged human ROCK2, 100 nM peptide substrate, 5 μM ATP, 30° C., 150 minutes; for Selectivity of NIK over ROCK2: IC50 for ROCK2 divided by IC50 for NIK
T2 construct: made in house; host or cells: Sf9 insect cells
Excerpt: cDNA of N-terminal His-tagged human ROCK2 catalytic domain [11-552 amino acids of accession number NP_00004841.2] was integrated into an expression vector, which was then highly expressed in sf9 cells. The sf9 cells were harvested and lysed, and then the His-tagged human ROCK2 protein was applied onto HisTrap HP (GE Healthcare) and eluted from the column with imidazole. The active fractions were desalted with a desalting column (PD-10, GE Healthcare) to give a purified enzyme.
For measurement of the activity of ROCK2, the substrate used was a synthetic peptide (5-FAM (5-carboxyfluorescein)-Ala-Lys-Arg-Arg-Arg-Leu-Ser-Ser-Leu-Arg-Ala-OH) (SEQ.ID.NO.:2) (Trauger J W. et. al, Biochemistry, 41, 8948-8953 (2002)), which was custom-made by JPT Peptide Technologies GmbH.
For detection of phosphorylation of the substrate, IMAP® technology (Molecular Devices, Co. Ltd.) (Gaudet E W. et. al, J. Biomol. Screen, 8, 164-175(2003)) was used.
The phosphorylation reaction was conducted using 384 well plate, and the reaction volume was 10.5 μL/well. The reaction buffer is comprised of 50 mM Tris-chloride buffer (pH 7.5), 10 mM magnesium acetate, 1 mM O,O′-Bis(2-aminoethyl)ethyleneglycol-N,N,N′,N′-tetraacetic acid (EGTA) and 1 mM dithiothreitol. Thereto, the purified ROCK2 protein, 100 nM of the peptide substrate, and 5 μM of adenosine 5′-triphosphate were added, and then the reaction was carried out at 30° C. for 150 minutes.
Thereafter, in order to terminate and detect the reaction, 30 μL of the IMAP (registered trademark) binding reagent (IMAP Progressive Binding Reagent) that had been diluted (1:500) in the 1× IMAP binding buffer A (IMAP Progressive Binding Buffer A, 5× stock) was added to each well. The solution stood still for 30 minutes in the dark, and then fluorescence polarization was measured using a high-end microplate reader (excitation wavelength: 485 nm; emission wavelength: 520 nm).
The compound to be tested was diluted in dimethylsulfoxide (DMSO) and then 0.5 μL of this solution was added to each well. Each control well was provided by adding 0.5 μL of DMSO to the well in place of the DMSO solution containing the compound to be tested. In Table 3, the selectivity of NIK over ROCK2 was calculated by dividing the value of IC50 for ROCK2 by the value of IC50 for NIK.

[3] = biological target: T3, Truncated human NIK (Homo sapiens, UniProt Q99558); test: NIK inhibitory activity: SRPKtide phosphorylation with [γ-33P] ATP, filter plate; type: biochemical; settings: GST-tagged truncated human NIK, 20 μM peptide substrate, 10 μM ATP, 25° C., 240 minutes
T3 construct: made in house; host or cells: Sf9 insect cells (baculovirus)
Excerpt: Truncated human NIK [319-947(end) amino acids of accession number AAH35576] was expressed in sf9 cells as N-terminus gluthatione-S-transferase (GST)-tagged protein using baculovirus expression system. The sf9 cells were harvested and lysed, and then the GST-tagged human NIK protein was applied onto a glutathione column (GSTrap, GE Healthcare) and eluted from the column with reduced glutathione. The active fractions were desalted with a desalting column (PD-10, GE Healthcare) to give a purified enzyme.
For measurement of the activity of NIK, the SRPKtide peptide (Arg-Ser-Arg-Ser-Arg-Ser-Arg-Ser-Arg-Ser-Arg-Ser-Arg-Ser-Arg-NH2) (SEQ.ID.NO.:1) was synthesized as a substrate, as described above.
The phosphorylation reaction was conducted using 384 well plate, and the reaction volume was 10.5 μL/well. The reaction buffer is comprised of 10 mM 3-Morpholinopropanesulfonic acid buffer (pH 7.4), 5 mM magnesium chloride, 1 mM O,O′-Bis (2-aminoethyl) ethyleneglycol-N,N,N′,N′-tetraacetic acid (EGTA) and 1 mM dithiothreitol. Thereto, the purified NIK protein, 20 μM of the peptide substrate, 10 μM of adenosine 5′-triphosphate (ATP) and 0.5 μCi [γ-33P] ATP solution were added, and then the reaction was carried out at 25° C. for 240 minutes. The [γ-33P]-labeled ATP was purchased from PerkinElmer Inc.
After the termination of the reaction by adding 20 μL of 350 mM phosphoric acid (H3PO4), the substrate peptide was adsorbed on a filter plate (Millipore Multiscreen, MZPHN0W50). The substrate-bound filter plate was washed with 130 mM phosphoric acid for several times and then 8 μL of Microscinti-O (PerkinElmer Inc.) was added to the each well. The radiation activity of the peptide was measured with TopCount NXT Microscintillation Counter (PerkinElmer Inc.).
The compound to be tested was diluted in dimethylsulfoxide (DMSO) and then 0.5 μL of this solution was added to each well. Each control well was provided by adding 0.5 μL of DMSO to the well in place of the DMSO solution containing the compound to be tested.

T2 sequence (O75116 11-552): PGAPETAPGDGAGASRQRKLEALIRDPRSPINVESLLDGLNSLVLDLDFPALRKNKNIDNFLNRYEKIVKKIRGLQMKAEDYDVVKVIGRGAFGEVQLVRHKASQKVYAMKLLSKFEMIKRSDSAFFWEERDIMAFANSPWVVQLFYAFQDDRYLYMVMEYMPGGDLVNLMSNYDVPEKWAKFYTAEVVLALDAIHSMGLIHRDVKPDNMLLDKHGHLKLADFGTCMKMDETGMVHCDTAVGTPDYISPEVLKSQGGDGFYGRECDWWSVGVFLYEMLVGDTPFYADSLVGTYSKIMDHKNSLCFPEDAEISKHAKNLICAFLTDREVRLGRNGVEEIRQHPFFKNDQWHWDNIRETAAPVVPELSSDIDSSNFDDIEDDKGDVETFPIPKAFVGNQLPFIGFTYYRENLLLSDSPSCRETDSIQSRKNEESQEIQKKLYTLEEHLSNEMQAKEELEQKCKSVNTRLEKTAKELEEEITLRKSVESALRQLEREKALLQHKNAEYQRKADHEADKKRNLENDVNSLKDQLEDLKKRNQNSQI
T1 sequence (Q99558 whole entry): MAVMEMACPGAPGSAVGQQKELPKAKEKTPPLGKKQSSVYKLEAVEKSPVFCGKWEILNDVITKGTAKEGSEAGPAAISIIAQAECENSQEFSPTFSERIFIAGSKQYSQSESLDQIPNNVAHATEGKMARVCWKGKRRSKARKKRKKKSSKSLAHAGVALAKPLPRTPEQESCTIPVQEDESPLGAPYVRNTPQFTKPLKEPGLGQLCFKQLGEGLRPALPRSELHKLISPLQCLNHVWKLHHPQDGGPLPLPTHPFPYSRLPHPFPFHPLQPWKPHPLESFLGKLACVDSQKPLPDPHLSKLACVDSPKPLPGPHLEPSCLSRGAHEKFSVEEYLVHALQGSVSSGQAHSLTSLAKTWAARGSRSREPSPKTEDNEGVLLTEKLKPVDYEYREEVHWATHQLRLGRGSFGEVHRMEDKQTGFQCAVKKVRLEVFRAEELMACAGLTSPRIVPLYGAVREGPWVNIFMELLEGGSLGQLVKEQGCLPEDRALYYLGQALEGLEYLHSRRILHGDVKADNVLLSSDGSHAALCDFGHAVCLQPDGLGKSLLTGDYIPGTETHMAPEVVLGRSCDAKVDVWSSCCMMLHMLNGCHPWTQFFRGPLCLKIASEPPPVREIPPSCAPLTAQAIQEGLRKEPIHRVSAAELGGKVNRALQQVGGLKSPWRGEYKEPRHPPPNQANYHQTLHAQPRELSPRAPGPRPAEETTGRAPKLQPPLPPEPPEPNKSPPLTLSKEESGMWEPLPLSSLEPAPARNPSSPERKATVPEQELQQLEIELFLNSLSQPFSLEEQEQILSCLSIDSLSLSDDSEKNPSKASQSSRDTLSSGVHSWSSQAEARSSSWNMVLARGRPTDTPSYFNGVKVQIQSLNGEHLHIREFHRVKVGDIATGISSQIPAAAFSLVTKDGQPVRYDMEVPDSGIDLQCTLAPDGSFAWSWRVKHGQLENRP
T3 sequence (Q99558 319-947): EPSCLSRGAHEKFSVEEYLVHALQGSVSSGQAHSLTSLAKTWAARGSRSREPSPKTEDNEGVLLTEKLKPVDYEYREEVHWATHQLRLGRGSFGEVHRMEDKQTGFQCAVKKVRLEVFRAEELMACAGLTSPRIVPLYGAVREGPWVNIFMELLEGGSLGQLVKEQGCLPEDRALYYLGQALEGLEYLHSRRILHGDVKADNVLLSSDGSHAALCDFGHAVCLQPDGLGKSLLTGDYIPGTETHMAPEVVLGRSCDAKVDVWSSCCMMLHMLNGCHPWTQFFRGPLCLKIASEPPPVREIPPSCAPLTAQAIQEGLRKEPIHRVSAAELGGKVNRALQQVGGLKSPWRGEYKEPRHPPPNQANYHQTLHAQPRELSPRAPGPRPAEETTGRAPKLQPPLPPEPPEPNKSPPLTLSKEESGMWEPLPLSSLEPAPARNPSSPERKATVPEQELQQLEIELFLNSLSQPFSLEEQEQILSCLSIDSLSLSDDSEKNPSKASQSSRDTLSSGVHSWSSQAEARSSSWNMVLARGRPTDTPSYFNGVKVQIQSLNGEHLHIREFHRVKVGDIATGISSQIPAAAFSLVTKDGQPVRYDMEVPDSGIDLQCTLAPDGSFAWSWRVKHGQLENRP

SMILES | IC50 [1] [µM] | IC50 [2] [µM] | Selectivity of NIK over ROCK2 [2] | IC50 [3] [µM]
Cc1ccc(C(N)=O)cc1Nc1nccc(-c2cn(C(C)C)c3cnccc23)n1 [Example 85, 3-[4-(1-Isopropyl-1H-pyrrolo[2,3-c]pyridin-3-yl)-pyrimidin-2-ylamino]-4-methyl-benzamide] | 0.14 | 2.59 | 40.9 | 0.0634
CC(C)n1cc(-c2ccnc(Nc3ccccc3)n2)c2ccncc21 [Example 3, [4-(1-Isopropyl-1H-pyrrolo[2,3-c]pyridin-3-yl)-pyrimidin-2-yl]-phenyl-amine] | – | 0.086 | 0.20 | 0.423
CC(C)n1cc(-c2ccnc(Nc3cc(C(N)=O)ccc3OCc3ccccc3)n2)c2ccncc21 [Example 94, 4-Benzyloxy-3-[4-(1-isopropyl-1H-pyrrolo[2,3-c]pyridin-3-yl)-pyrimidin-2-ylamino]-benzamide] | 0.23 | 1.01 | 11.9 | 0.0845
CNC(=O)c1ccc(OC)c(Nc2nccc(-c3cn(C(C)C)c4cnccc34)n2)c1 [Example 71, 3-[4-(1-Isopropyl-1H-pyrrolo[2,3-c]pyridin-3-yl)-pyrimidin-2-ylamino]-4-methoxy-N-methyl-benzamide] | 0.2 | 4.52 | 173.3 | 0.0261

Reference: patent US20110183975A1, “NOVEL 6-AZAINDOLE AMINOPYRIMIDINE DERIVATIVES HAVING NIK INHIBITORY ACTIVITY” (priority 2008, published 2011)
